This is an account of results in US20170045513A1, “METHODS OF DIAGNOSING CELIAC DISEASE USING IP-10” (ImmusanT, Inc., priority 2014, published 2017).

Non-standard residues stand in square brackets, D forms with d. pGlu = O=C1CC[C@@H](C(=O)O)N1 Some results are limits rather than exact numbers.

What all share (type): cell-based, human
In experiment [1] the test system is gluten-reactive T cells. Description: Overnight IFNγ ELISpot assay with fresh PBMC. The note with it: for IFNγ ELISpot % max Mean: n = 5, blood after oral gluten challenge, individual peptides 5 μM (Peptide 2* of P14, Pepscan: 10 μg/mL (5.45 μM)); for Percent of maximal response to individual gluten peptides, ELISp: after oral gluten challenge. As to the method:
HLA-DQ2.5-positive celiac disease subjects on gluten-free diet were used in this study. Blood was collected immediately before and 6 days after commencing 3-day oral gluten challenge. Whole blood or PBMCs were incubated with pools or single peptides derived from gluten or recall antigens. IFNγ and IP-10 levels were measured in plasma from the whole blood that was incubated in 96-well plates with peptides or peptide pools. Plasma cytokine/chemokine levels were measured by MAGPIX® multiplex bead assay (IFNγ and IP-10) or by ELISA (IFNγ and IP-10), and PBMC separated from the same blood sample were incubated in overnight IFNγ ELISpot assays.
Overnight IFNγ ELISpot assays (Human IFN-γ ELISpotPRO kit, transparent, ALP; Mabtech AB, #3420-2APT-10) were performed using PBMC freshly separated from heparinized blood diluted 1:1 in PBS with 2% fetal bovine serum (Stemcell Technologies #07905; Vancouver, BC, V5Z 1B3, Canada) overlaid on density gradient medium (Ficoll-Paque™ PLUS; GE Healthcare Lice Sciences #:17-1440-02) in SepMate™-50 tubes (Stemcell Technologies #15460). PBMC (8 million/mL) were resuspended in serum-free medium with gentamicin and phenol red (X-VIVO™15; Lonza, Walkersville Mass. 21793). PBMC (0.4 million/50 pt/well) and incubated with 50 μL 80% X-vivo15, 0.2% DMSO and 20% PBS in three triplicate wells (“medium only”), or with 50 μL PHA-L 20 μg/ml or peptide at 2× final concentration in 80% X-vivo15, 0.2% DMSO and 20% PBS. Peptide solutions to be added to individual ELISpot wells were prepared in 96-well U-bottom plates (60 pt/well) that were then sealed with adhesive ELISA plate cover slips before replacing the plastic lid and being frozen at −80° C. 96-well plates containing peptide solutions were thawed at room temperature for 10 min while being centrifuged at 300 g immediately prior to being added to ELISpot wells. Peptide pools and mitogen were assessed in triplicate wells, and individual peptides were assessed in duplicate wells. X-VIVO™15 (50 μL) was incubated with 80% X-vivo15, 0.2% DMSO and 20% PBS (50 μL) in triplicate wells (“no PBMC” control). A Zeiss automated ELISpot counter was used to determine spot forming units (SFU) per well (Zellnet Inc., Fort Lee, N J 07024). Laboratory staff were unaware of the arrangement of peptide solutions in ELISpot wells during assay setup and plate counting.

In experiment [2] the test system is gluten-reactive T cells. Description: 96-well plate whole blood cytokine release, IFNγ by MAGPIX multiplex bead assay. The note with it: for IFNγ WB MAGPIX % max Mean: n = 8, blood after oral gluten challenge, individual peptides 5 μM (Peptide 2* of P14, Pepscan: 10 μg/mL (5.45 μM)); for Percent of maximal response to individual gluten peptides, IFNg: after oral gluten challenge.

The subject of experiment [3] is gluten-reactive T cells. In words: Cytokine release assays taken together (IFNγ ELISpot, whole blood IFNγ and IP-10, in-tube IFNγ ELISA). How it is done: Gluten peptide solutions for addition to whole blood were arranged according to standardized templates in sterile 96-well U-bottom plates (30 μL/well). Plates were sealed with adhesive ELISA plate cover slips before the plastic lid was replaced and being frozen at −80° C. Whole blood assay (WBA) “medium” (1% DMSO in 90% PBS and 9% normal saline), mitogen (PHA-L, Sigma-Aldrich #L2769; St Louis Mo.) 100 μg/ml in WBA medium, and CEF diluted to 10 μg/ml in PBS with a final concentration of 1% DMSO were frozen separately in sterile cryovials. 96-well plates and cryovials with frozen incubation solutions were shipped on dry ice to the clinical site where blood was collected and incubations performed. Solutions were thawed at room temperature for 10 min just before being added to whole blood. 96-well plates were thawed while being centrifuged at 300 g to avoid surface condensation. A multi-channel pipette was used to efficiently transfer 25 μL of peptide solutions from the original 96-well plate to corresponding wells in a fresh sterile 96-well U-bottom plate. Once incubation solutions had been added, 225 μL of whole blood was added to each well and the plate transferred to incubate for 24 h at 37° C. 5% CO2. […] Individual peptides were incubated at a final assay concentration of 51.1M. Final concentrations of individual peptides assessed in P3 was 0.05-50 μg/mL, and in P14 and P13 pools 0.025-25 μM. The P71 pool was tested at between 0.005-10 pg/mL, the highest tested concentration being the maximal possible not exceeding 0.1% DMSO. Peptide pools, mitogen, and medium only were assessed in triplicate wells, and on Day-6 individual peptides were assessed in duplicate wells. Incubations were terminated after 24 h, and 96-well plates centrifuged at 300 g for 10 min. A total of approximately 90 to 120 μL of plasma was removed from each well taking care to avoid red cell contamination, and transferred into corresponding wells of two further 96-well plates (one with 30 μL/well and the residual in the second plate). Plasmas were frozen at −80° C. and later shipped on dry ice to the central lab where IP-10 and IFNγ multiplex bead assays were performed according to manufacturer's instructions using 25 μL plasma per well (Milliplex® MAP Human Cytokine/Chemokine Magnetic Bead Panel #HCYTOMAG-60k-02; EMD Millipore Corp., Billerica, Mass. 01821) and analysed with the Luminex® MAGPIX® System xPONENT® software (Luminex Corporation, Austin Tex. 78727). Plasma cytokine levels for each assay condition were expressed as the mean analyte concentration of each of the three replicate incubations. Laboratory staff were unaware of the arrangement of peptide solutions incubated with during assay setup and plate counting.
Aliquots of PBS, P3 peptides diluted in PBS (final concentration in blood 3× 50 or CEF to a final concentration 1 μg/mL were prepared in sterile cryovials (0.11 mL/vial) and stored frozen (−80° C.) until immediately before use. P3, CEF and two PBS aliquots were drawn up in separate sterile 0.3 mL insulin syringes with attached 29G×½″ needle (Terumo, SS*30M2913; Elkton Md. 21921). P3, CEF and one PBS aliquot was injected through the stoppers of three separate QuantiFERON® NIL tubes already containing 1 mL blood, and one aliquot of PBS was injected into a QuantiFERON® MITOGEN tube already containing 1 mL blood. All four tubes containing blood and incubation solution were gently inverted ten-times and transferred to incubate at 37° C. 5% CO2. After for 24 h, tubes were centrifuged 300 g 10 min. Plasma was separated and equal volumes placed in two 1.5 mL cryovials. Frozen plasmas were transferred to the central lab where IFNγ levels were measured in triplicate 50 μL samples by ELISA (MABtech Human IFN-γ ELISA development kit HRP, 3420-1H-6; capture mAb 1-D1K). […]
Background: An ELISA detects its analyte on a solid surface through an enzyme-linked reagent.

For experiment [4], the system named is gluten-reactive T cells. In words: 96-well plate whole blood cytokine release, IP-10 by MAGPIX multiplex bead assay. The note with it: for Percent of maximal response to individual gluten peptides, IP-10: after oral gluten challenge; for IP-10 WB MAGPIX % max Mean: n = 10, blood after oral gluten challenge, individual peptides 5 μM (Peptide 2* of P14, Pepscan: 10 μg/mL (5.45 μM)).

Consider “(pE)QPFPQPEQPFPWQP-amide ([pGlu]QPFPQPEQPFPWQP-NH2; SMILES NC(=O)CC[C@H](NC(=O)[C@H](Cc1c[nH]c2ccccc12)NC(=O)[C@@H]1CCCN1C(=O)[C@H](Cc1ccccc1)NC(=O)[C@@H]1CCCN1C(=O)[C@H](CCC(N)=O)NC(=O)[C@H](CCC(=O)O)NC(=O)[C@@H]1CCCN1C(=O)[C@H](CCC(N)=O)NC(=O)[C@@H]1CCCN1C(=O)[C@H](Cc1ccccc1)NC(=O)[C@@H]1CCCN1C(=O)[C@H](CCC(N)=O)NC(=O)[C@@H]1CCC(=O)N1)C(=O)N1CCC[C@H]1C(N)=O) [Peptide 2, two preparations tested separately: CSBio (5 μM) and Pepscan re-synthesis (10 μg/mL)]”, for which the “IFNγ ELISpot % max Mean” value worked out at 19 % max in the experiment on gluten-reactive T cells [1] and 25 % max with gluten-reactive T cells [1] (listed as Peptide 2*). Further, the “IFNγ WB MAGPIX % max Mean” value is recorded as 23 % max in the experiment with gluten-reactive T cells [2] and 27 % max in the experiment with gluten-reactive T cells [2] (listed as Peptide 2*). The “activity relative to Peptide 14 in the cytokine release assays” value in the experiment with gluten-reactive T cells [3] (blood collected after oral gluten challenge) is “approximately one-half to one-fifth as active as Peptide 14”. Also, the “Percent of maximal response to individual gluten peptides, IP-10” value (“Percent of maximal response … IP-10” for short) in the experiment with gluten-reactive T cells [4] (Subject 3, Max. 9492 pg/mL) is on record as ≥ 100 % of max; with gluten-reactive T cells [4] (Subject 4, Max. 9463 pg/mL), ≥ 100 % of max. Further, the “IP-10 WB MAGPIX % max Mean” value was 43 % max with gluten-reactive T cells [4] and 49 % max with gluten-reactive T cells [4] (listed as Peptide 2*).
On to “(pE)QPFPEQPEQIIPQQP-amide ([pGlu]QPFPEQPEQIIPQQP-NH2; SMILES CC[C@H](C)[C@H](NC(=O)[C@H](CCC(N)=O)NC(=O)[C@H](CCC(=O)O)NC(=O)[C@@H]1CCCN1C(=O)[C@H](CCC(N)=O)NC(=O)[C@H](CCC(=O)O)NC(=O)[C@@H]1CCCN1C(=O)[C@H](Cc1ccccc1)NC(=O)[C@@H]1CCCN1C(=O)[C@H](CCC(N)=O)NC(=O)[C@@H]1CCC(=O)N1)C(=O)N[C@H](C(=O)N1CCC[C@H]1C(=O)N[C@@H](CCC(N)=O)C(=O)N[C@@H](CCC(N)=O)C(=O)N1CCC[C@H]1C(N)=O)[C@@H](C)CC) [Peptide 12]”, for which the “Percent of maximal response to individual gluten peptides, ELISp” value with gluten-reactive T cells [1] (Subject 3, Max. 18 SFU) is listed as 6 % of max; with gluten-reactive T cells [1] (Subject 4, Max. 36 SFU), 0 % of max; in the experiment on gluten-reactive T cells [1] (Subject 8, Max. 17 SFU), 6 % of max; with gluten-reactive T cells [1] (Subject 10, Max. 11 SFU), 0 % of max. Also, the “IFNγ ELISpot % max Mean” value with gluten-reactive T cells [1] is reported as 3 % max. For the same substance, the “Percent of maximal response to individual gluten peptides, IFNg” value in the experiment on gluten-reactive T cells [2] (Subject 2, Max. 116 pg/mL) was 13 % of max; in the experiment with gluten-reactive T cells [2] (Subject 3, Max. 799 pg/mL), 0 % of max; in the experiment on gluten-reactive T cells [2] (Subject 4, Max. 136 pg/mL) it was 0 % of max; in the experiment with gluten-reactive T cells [2] (Subject 6, Max. 72 pg/mL) it was 0 % of max; in the experiment on gluten-reactive T cells [2] (Subject 7, Max. 17 pg/mL), 0 % of max; in the experiment with gluten-reactive T cells [2] (Subject 8, Max. 47 pg/mL) it was 0 % of max. In addition, the “Percent of maximal response to individual gluten peptides, IFNg” value in the experiment with gluten-reactive T cells [2] (Subject 9, Max. 67 pg/mL) is reported as 0 % of max; with gluten-reactive T cells [2] (Subject 10, Max. 229 pg/mL) it was 1 % of max. Also, in the experiment with gluten-reactive T cells [2], the “IFNγ WB MAGPIX % max Mean” value was determined as 2 % max. Moreover, the “cytokine release / immunogenicity of individual peptide” value with gluten-reactive T cells [3] (HLA-DQ2.5+ celiac disease subjects after gluten challenge) is given as “weak or absent”. Also, the “Percent of maximal response … IP-10” value with gluten-reactive T cells [4] (Subject 1, Max. 2331 pg/mL) is 11 % of max; with gluten-reactive T cells [4] (Subject 2, Max. 3646 pg/mL), 3 % of max; with gluten-reactive T cells [4] (Subject 3, Max. 9492 pg/mL), 9 % of max; in the experiment with gluten-reactive T cells [4] (Subject 4, Max. 9463 pg/mL), 5 % of max; in the experiment with gluten-reactive T cells [4] (Subject 5, Max. 9336 pg/mL), 4 % of max; with gluten-reactive T cells [4] (Subject 6, Max. 5863 pg/mL), 0 % of max. The “Percent of maximal response … IP-10” value is 0 % of max with gluten-reactive T cells [4] (Subject 7, Max. 2330 pg/mL); 0 % of max with gluten-reactive T cells [4] (Subject 8, Max. 4019 pg/mL); 1 % of max with gluten-reactive T cells [4] (Subject 9, Max. 8349 pg/mL); 0 % of max in the experiment on gluten-reactive T cells [4] (Subject 10, Max. 8922 pg/mL). In the experiment on gluten-reactive T cells [4], the “IP-10 WB MAGPIX % max Mean” value amounted to 3 % max.
